# Measured values: patent US9421204B2, “Oligomer modified diaromatic substituted compounds” (priority 2010, dated 2016)
# “And” between values parts separate entries of the source, which are not always exact repeats. Equal entries are not always repeated. Where two headings read alike, the source gives them in different places.
# Assays:
# [1] = test system: HIV-1RF; test: Anti-HIV-1 cytoprotection assay in CEM-SS cells; type: cell-based
# Protocol: Cell Preparation—CEM-SS cells were passaged in T-75 flasks prior to use in the antiviral assay. On the day preceding the assay, the cells were split 1:2 to assure they were in an exponential growth phase at the time of infection. Total cell and viability quantification was performed using a hemocytometer and Trypan Blue dye exclusion. […] The cells were resuspended at 5×10^4 cells per ml in tissue culture medium and added to the drug containing microtiter plates in a volume of 50 μL.
# Virus Preparation—The virus used for the assay was the lymphocyte-tropic virus strain HIV-IRF. The virus was obtained from the NIH AIDS Research and Reference Reagent Program and stock virus pools were produced in CEM-SS cells. A pretitred aliquot of virus was removed from the freezer (−80° C.) and allowed to thaw slowly to room temperature in a biological safety cabinet.
# (§1) Plate Format—Each plate contains cell control wells (cells only), virus control wells (cells plus virus), drug toxicity wells (cells plus drug only), drug colorimetric control wells (drug only) as well as experimental wells (drug plus cells plus virus). Samples were tested in triplicate with eleven half-log dilutions per compound.
# (§2) Efficacy and Toxicity XTT—Following incubation at 37° C. in a 5% CO2 incubator, the test plates were stained with the tetrazolium dye XTT (2,3-bis(2-methoxy-4-nitro-5-sulfophenyl)-5-[(phenylamino)carbonyl]-2H-tetrazolium hydroxide). XTT-tetrazolium is metabolized by the mitochondrial enzymes of metabolically active cells to a soluble formazan product, allowing rapid quantitative analysis of the inhibition of HIV induced cell killing by anti-HIV test substances. XTT solution was prepared daily as a stock of 1 mg/mL in RPMI1640. Phenazine methosulfate (PMS) solution was prepared at 0.15 mg/mL in PBS and stored in the dark at −20° C. XTT/PMS stock was prepared immediately before use by adding 40 μL of PMS per ml of XTT solution. Fifty microliters of XTT/PMS was added to each well of the plate and the plate was re-incubated for 4 hours at 37° C. Plates were sealed with adhesive plate sealers and shaken gently or inverted several times to mix the soluble fosmazan product and the plate was read spectrophotometrically at 450/650 nm with a Molecular Devices Vmax plate reader.
# Anti-HIV-1 Cytopathic Effects Inhibition Assay Evaluations: Eight compounds were evaluated against the RF strain of HIV-1 in CEM-SS cells using a 12 concentration dose response curve.
# (§3) Data Analysis—Raw data was collected from the Softmax Pro 4.6 software and imported into a Excel XLFit4 spreadsheet for analysis by four parameter curve fit calculations. Both antiviral activity and toxicity are calculated.
# [2] = Toxicity XTT in CEM-SS cells (cytoprotection assay); type: cell-based; conditions: human, CEM-SS cells, XTT; read-out: CEM-SS TC50
# Protocol: Cell Preparation—CEM-SS cells were passaged in T-75 flasks prior to use in the antiviral assay. On the day preceding the assay, the cells were split 1:2 to assure they were in an exponential growth phase at the time of infection. Total cell and viability quantification was performed using a hemocytometer and Trypan Blue dye exclusion. Cell viability was greater than 95% for the cells to be utilized in the assay. The cells were resuspended at 5×10^4 cells per ml in tissue culture medium and added to the drug containing microtiter plates in a volume of 50 μL.
# as §1, §2, §3
# [3] = test system: NL4-3L100I; test: Anti-HIV cytoprotection assay, drug resistant NL4-3 L100I; type: cell-based; conditions: HIV-1 strain NL4-3L100I, CEM-SS cells
# Protocol: (§4) Cells were prepared as described above. Virus Preparation—The wild type NL4-3 and drug resistant A17 viruses were obtained from the NIH AIDS Research and Reference Reagent Program and stock virus pools were produced in CEM-SS cells. Amino acid substitutes of L100I, Y181C and P23L were introduced by site-directed mutagenesis into pN L4-3 and stock virus pools were produced in CEM-SS cells. A pretitered aliquot of virus was removed from the freezer (−80° C.) and allowed to thaw slowly to room temperature in a biological safety cabinet. Virus was re-suspended and diluted into tissue culture medium such that the amount of virus added to each well in a volume of 50 μL was the amount determined to yield 85 to 95% cell killing at 6 days post-infection.
# as §2, with “Plate Format—Each plate contains cell control wells (cells only), virus control wells (cells plus virus), drug toxicity wells (cells plus drug only), drug colorimetric control wells (drug only) as well as experimental wells (drug plus cells plus virus). Samples were tested in triplicate with eleven half-log dilutions per compound. Efficacy” for “Efficacy”, “XTT-tetrazolium was” for “XTT-tetrazolium is”, “C. XTTIPMS” for “C. XTT/PMS”, “soluble formazan” for “soluble fosmazan”
# as §3
# [4] = test system: NL4-3Y181C; test: Anti-HIV cytoprotection assay, drug resistant NL4-3 Y181C; type: cell-based; conditions: HIV-1 strain NL4-3Y181C; for EC50: CEM-SS cells
# Protocol: as §4
# as §2, with “Plate Format—Each plate contains cell control wells (cells only), virus control wells (cells plus virus), drug toxicity wells (cells plus drug only), drug colorimetric control wells (drug only) as well as experimental wells (drug plus cells plus virus). Samples were tested in triplicate with eleven half-log dilutions per compound. Efficacy” for “Efficacy”, “XTT-tetrazolium was” for “XTT-tetrazolium is”, “C. XTTIPMS” for “C. XTT/PMS”, “soluble formazan” for “soluble fosmazan”
# as §3
# [5] = test system: NL4-3P236L; test: Anti-HIV cytoprotection assay, drug resistant NL4-3 P236L; type: cell-based; conditions: HIV-1 strain NL4-3P236L; for EC50: CEM-SS cells
# Protocol: as §4
# as §2, with “Plate Format—Each plate contains cell control wells (cells only), virus control wells (cells plus virus), drug toxicity wells (cells plus drug only), drug colorimetric control wells (drug only) as well as experimental wells (drug plus cells plus virus). Samples were tested in triplicate with eleven half-log dilutions per compound. Efficacy” for “Efficacy”, “XTT-tetrazolium was” for “XTT-tetrazolium is”, “C. XTTIPMS” for “C. XTT/PMS”, “soluble formazan” for “soluble fosmazan”
# as §3
# [6] = test system: A17K103N/Y181C; test: Anti-HIV cytoprotection assay, drug resistant A17; type: cell-based; conditions: HIV-1 strain A17K103N/Y181C, CEM-SS cells
# Protocol: as §4, with “cabinet.” for “cabinet. Virus was re-suspended and diluted into tissue culture medium such that the amount of virus added to each well in a volume of 50 μL was the amount determined to yield 85 to 95% cell killing at 6 days post-infection.”
# as §2, with “Plate Format—Each plate contains cell control wells (cells only), virus control wells (cells plus virus), drug toxicity wells (cells plus drug only), drug colorimetric control wells (drug only) as well as experimental wells (drug plus cells plus virus). Samples were tested in triplicate with eleven half-log dilutions per compound. Efficacy” for “Efficacy”, “XTT-tetrazolium was” for “XTT-tetrazolium is”, “C. XTTIPMS” for “C. XTT/PMS”, “soluble formazan” for “soluble fosmazan”
# as §3
# [7] = Toxicity XTT in CEM-SS cells (drug resistant strain assay); type: cell-based; conditions: human, CEM-SS cells, read-out: TC50 (the source's name)
# Protocol: as §4
# as §2, with “Plate Format—Each plate contains cell control wells (cells only), virus control wells (cells plus virus), drug toxicity wells (cells plus drug only), drug colorimetric control wells (drug only) as well as experimental wells (drug plus cells plus virus). Samples were tested in triplicate with eleven half-log dilutions per compound. Efficacy” for “Efficacy”, “XTT-tetrazolium was” for “XTT-tetrazolium is”, “C. XTTIPMS” for “C. XTT/PMS”, “soluble formazan” for “soluble fosmazan”
# as §3
# [8] = test system: NL4-3; test: Anti-HIV cytoprotection assay, wild type NL4-3; type: cell-based, HIV-1; conditions: for EC50: HIV-1 strain NL4-3, CEM-SS cells, read-out: EC50
# Protocol: as §4, with “cabinet.” for “cabinet. Virus was re-suspended and diluted into tissue culture medium such that the amount of virus added to each well in a volume of 50 μL was the amount determined to yield 85 to 95% cell killing at 6 days post-infection.”
# as §2, with “Plate Format—Each plate contains cell control wells (cells only), virus control wells (cells plus virus), drug toxicity wells (cells plus drug only), drug colorimetric control wells (drug only) as well as experimental wells (drug plus cells plus virus). Samples were tested in triplicate with eleven half-log dilutions per compound. Efficacy” for “Efficacy”, “XTT-tetrazolium was” for “XTT-tetrazolium is”, “C. XTTIPMS” for “C. XTT/PMS”, “soluble formazan” for “soluble fosmazan”
# as §3
# [9] = test system: CEM-SS cells; test: Toxicity XTT in CEM-SS cells (drug resistant strain assay); type: cell-based; conditions: read-out: TC50 (the source's name)
# Protocol: as §4
# as §2, with “Plate Format—Each plate contains cell control wells (cells only), virus control wells (cells plus virus), drug toxicity wells (cells plus drug only), drug colorimetric control wells (drug only) as well as experimental wells (drug plus cells plus virus). Samples were tested in triplicate with eleven half-log dilutions per compound. Efficacy” for “Efficacy”, “XTT-tetrazolium was” for “XTT-tetrazolium is”, “C. XTTIPMS” for “C. XTT/PMS”, “soluble formazan” for “soluble fosmazan”
# as §3
# [10] = Human immunodeficiency virus 1, CEM-SS
# [11] = run with HIV-1 strain A17K103N/Y181C
# [12] = run with HIV-1 strain NL4-3L100I
# [13] = run with HIV-1 strain NL4-3P236L
# [14] = run with HIV-1 strain NL4-3Y181C
smiles,measurement,setting,value
"Cc1cn([C@H]2C[C@H](N=[N+]=[N-])[C@@H](CO)O2)c(=O)[nH]c1=O [AZT, reference compound]",EC50,"[1]; CEM-SS cells, XTT, read-out: CEM-SS/HIV-1RF EC50",10 nM
same,EC50,"[1]; Human immunodeficiency virus 1, CEM-SS, CEM-SS cells, XTT, read-out: CEM-SS/HIV-1RF EC50",6 nM
same,EC50,"[1]; Human immunodeficiency virus 1, CEM-SS, RF strain of HIV-1 in CEM-SS cells, control compound, read-out: EC50",6 nM
same,CC50,[2],> 1000 nM
same,EC50,[3],6 nM
same,EC50,[3]; [10],3 nM
same,EC50,[4],1 nM
same,EC50,[4]; [10],2 nM
same,TI,[5],>71.4 and >50.0
same,EC50,[6]; [10],3 nM
same,CC50,[7]; [11],> 500 nM
"CC(C)Nc1cccnc1N1CCN(C(=O)c2cc3cc(NS(C)(=O)=O)ccc3[nH]2)CC1 [Delavirdine, N-[2-({4-[3-(propan-2-ylamino)pyridin-2-yl]piperazin-1-yl}carbonyl)-1H-indol-5-yl]methanesulfonamide, reference compound]",TI,[8]; HIV-1 strain NL4-3,>100.0
same,EC50,[8],10 nM
same,EC50,"[8]; Human immunodeficiency virus 1, NL43, CEM-SS",5 nM
same,TI,[4],>1.7
same,EC50,[4],580 nM
same,EC50,[4]; [10],> 500 nM
same,TI,[5],>2.0
same,EC50,[5],500 nM
same,EC50,[5]; [10],> 500 nM
same,EC50,[6],> 1000 nM
same,EC50,[6]; [10],> 500 nM
same,CC50,[7]; [11],> 500 nM
same,CC50,[7]; run with HIV-1 strain NL4-3,> 500 nM
same,CC50,[7]; [12],> 500 nM
same,CC50,[7]; [13],> 500 nM
same,CC50,[7]; [14],> 500 nM
same,CC50,[9]; [11],> 1000 nM
same,CC50,[9]; run with HIV-1 strain NL4-3,> 1000 nM
same,CC50,[9]; [12],> 1000 nM
same,CC50,[9]; [13],> 1000 nM
same,CC50,[9]; [14],> 1000 nM
